The record followed here is patent publication US20240254119A1 (THIRD HARMONIC BIO, INC., priority 2022, published 2024).

Each structure is given as a SMILES string. Where two headings read alike, the source gives them in different places.

One series deals with CYP3A4. As to the kind of experiment: Hepatocyte CYP induction assay, CYP3A4 gene expression. The series is classed as in vitro ADME. Particulars: human hepatocytes. The procedure, abridged: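 Cryopreserved human hepatocytes in Matrigel sandwich culture were dosed in 0.1% DMSO for 48 h at 37 °C, with medium and compound renewed at 24 h, in triplicate; rifampicin was the positive control. CYP3A4 mRNA was measured by qPCR, normalized to 18S rRNA, and fold change (2^−ΔΔCt vs vehicle) […].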

A short description of series [1]: Three time point assay for plasma, brain and testes distribution after oral dosing. The series is classed as in vivo, rat. Particulars: for concentration at 0.5 h / Kp at 0.5 h / concentration at 2 h / Kp at 2 h / concentration at 7 h / Kp at 7 h: male, SD, 10 mg/kg; for concentration at 0.5 h / Kp at 0.5 h / concentration at 2 h / Kp at 2 h / concentration at 7 h / Kp at 7 h / Brain concentration / Kp brain/plasma / Kp testes/plasma / Plasma concentration / Testes concentration: rat, oral dosing; for brain penetration as indicated by Kp (Cbrain/Cplasma): result in words. The procedure, abridged: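 Male SD rats received 10 mg/kg by oral gavage; plasma was sampled at one or more of 0.5, 2, 3, 5.3 and 7 h. PBS-perfused brain and testis were homogenized 1:9 in PBS (pH 7.4):MeOH 2:1, and compound levels were quantified by LC-MS/MS against calibration standards.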

For the molecule `Cc1ccc(-c2noc([C@H]3C[C@@H]3F)n2)cc1NC(=O)c1cnc2cc(COCC(C)(C)O)ccn12` [Compound I-71, N-[5-[5-[(1R,2S)-2-fluorocyclopropyl]-1,2,4-oxadiazol-3-yl]-2-methyl-phenyl]-7-[(2-hydroxy-2-methyl-propoxy)methyl]imidazo[1,2-a]pyridine-3-carboxamide], the “CYP 3A4 induction mRNA: Mean fold at 10 μM” value with CYP3A4 (donor five), in the series on CYP3A4 (donor four) and with CYP3A4 (donor one) was “+ (induction fold of less than or equal to 2-fold)” throughout. Further, the concentration at 0.5 h in series [1] (brain, time point 0.5 h, read-out: Brain concentration) was 91.8 ng/g; in series [1] (plasma, time point 0.5 h, read-out: Plasma concentration), 1810 ng/mL; in series [1] (testes, time point 0.5 h, read-out: Testes concentration), 166 ng/g. The Kp at 0.5 h is 0.05 in series [1] (brain, time point 0.5 h, read-out: Kp brain/plasma) and 0.09 in series [1] (testes, time point 0.5 h, read-out: Kp testes/plasma). The concentration at 2 h in series [1] (brain, time point 2 h, read-out: Brain concentration) was determined as 169 ng/g; in series [1] (plasma, time point 2 h, read-out: Plasma concentration), 3420 ng/mL; in series [1] (testes, time point 2 h, read-out: Testes concentration), 653 ng/g. Moreover, the Kp at 2 h in series [1] (brain, time point 2 h, read-out: Kp brain/plasma) was 0.05; in series [1] (testes, time point 2 h, read-out: Kp testes/plasma), 0.19. Moreover, the concentration at 7 h in series [1] (brain, time point 7 h, read-out: Brain concentration) worked out at 126 ng/g; in series [1] (plasma, time point 7 h, read-out: Plasma concentration), 4110 ng/mL; in series [1] (testes, time point 7 h, read-out: Testes concentration), 739 ng/g. For the same molecule, the Kp at 7 h in series [1] (brain, time point 7 h, read-out: Kp brain/plasma) came out at 0.03; in series [1] (testes, time point 7 h, read-out: Kp testes/plasma), 0.18. Also, the “brain penetration as indicated by Kp (Cbrain/Cplasma)” value (shortened to “brain penetration … (Cbrain/Cplasma)”) in series [1] was “do not significantly penetrate the brain or minimally penetrate the brain”.

On to `Cc1ccc(-c2noc([C@H]3C[C@@H]3F)n2)cc1NC(=O)c1cnc2cc(OC(C)C)ccn12` [Compound I-88], for which the “CYP 3A4 induction mRNA: Mean fold at 10 μM” value in the series on CYP3A4 (donor five) is listed as “+ (induction fold of less than or equal to 2-fold)”. Moreover, the “CYP 3A4 induction mRNA: Mean fold at 10 μM” value in the series on CYP3A4 (donor four) is reported as “+ (induction fold of less than or equal to 2-fold)”. Besides, the “CYP 3A4 induction mRNA: Mean fold at 10 μM” value in the series with CYP3A4 (donor one) is “+ (induction fold of less than or equal to 2-fold)”. In series [1] (time point 0.5 h), this molecule yielded a Brain concentration of 722 ng/g, a Kp brain/plasma of 0.27, a Kp testes/plasma of 0.19 and a Plasma concentration of 2640 ng/mL. For the same molecule, the Testes concentration in series [1] (time point 0.5 h) was 480 ng/g. In series [1] (time point 2 h), the Brain concentration is reported as 1200 ng/g, the Kp brain/plasma is given as 0.14, the Kp testes/plasma was 0.16 and the Plasma concentration was 8390 ng/mL. The Testes concentration in series [1] (time point 2 h) is reported as 1330 ng/g. In series [1] (time point 7 h), this molecule had a Brain concentration of 1250 ng/g, a Kp brain/plasma of 0.15, a Kp testes/plasma of 0.21 and a Plasma concentration of 9200 ng/mL. The molecule further gave a Testes concentration in series [1] (time point 7 h) of 1950 ng/g.

Turning to `Cc1ccc(-c2noc(CC(C)O)n2)cc1NC(=O)c1cnc2ccccn12` (racemic) [Compound I-363], the “CYP 3A4 induction mRNA: Mean fold at 10 μM” value in the series on CYP3A4 (donor five) is recorded as “+ (induction fold of less than or equal to 2-fold)”. In addition, in the series on CYP3A4 (donor four), the “CYP 3A4 induction mRNA: Mean fold at 10 μM” value was “+ (induction fold of less than or equal to 2-fold)”. Moreover, in the series with CYP3A4 (donor three), the “CYP 3A4 induction mRNA: Mean fold at 10 μM” value is listed as “+ (induction fold of less than or equal to 2-fold)”. For the same molecule, in series [1] (time point 2 h), the Brain concentration turned out to be 46 ng/g, the Kp brain/plasma is reported as 0.06, the Kp testes/plasma is reported as 0.13 and the Plasma concentration was 815 ng/mL. Moreover, in series [1] (time point 2 h), the Testes concentration stood at 104 ng/g.

For the molecule `Cc1ccc(-c2noc([C@H]3C[C@@H]3F)n2)cc1NC(=O)c1cnc2cc(OC(F)(F)F)ccn12` [Compound I-87], the “CYP 3A4 induction mRNA: Mean fold at 10 μM” value with CYP3A4 (donor four) is “+ (induction fold of less than or equal to 2-fold)”. In addition, in series [1] (time point 0.5 h), the Brain concentration was 248 ng/g, the Kp brain/plasma is on record as 0.60, the Kp testes/plasma is on record as 0.38 and the Plasma concentration amounted to 454 ng/mL. The molecule further registered a Testes concentration in series [1] (time point 0.5 h) of 159 ng/g. In series [1] (time point 2 h), this molecule registered a Brain concentration of 954 ng/g, a Kp brain/plasma of 0.68, a Kp testes/plasma of 0.71 and a Plasma concentration of 1480 ng/mL. The molecule further yielded a Testes concentration in series [1] (time point 2 h) of 989 ng/g. In series [1] (time point 7 h), this molecule displayed a Brain concentration of 1730 ng/g, a Kp brain/plasma of 0.36, a Kp testes/plasma of 0.34 and a Plasma concentration of 4970 ng/mL. In series [1] (time point 7 h), the Testes concentration is on record as 1650 ng/g.

`Cc1ccc(-c2noc([C@H]3CC(F)(F)CN3)n2)cc1NC(=O)c1cnc2ccccn12` [Compound I-359]: the “CYP 3A4 induction mRNA: Mean fold at 10 μM” value with CYP3A4 (donor four) is reported as “+ (induction fold of less than or equal to 2-fold)”. In series [1] (time point 2 h), this molecule had a Brain concentration of 52.7 ng/g, a Kp brain/plasma of 0.02, a Kp testes/plasma of 0.12 and a Plasma concentration of 2950 ng/mL. In series [1] (time point 2 h), this molecule registered a Testes concentration of 345 ng/g.

On to `COCCOCc1ccn2c(C(=O)Nc3cc(-c4noc([C@H]5C[C@@H]5F)n4)ccc3C)cnc2c1` [Compound I-84], for which, in the series on CYP3A4 (donor four), the “CYP 3A4 induction mRNA: Mean fold at 10 μM” value is “+ (induction fold of less than or equal to 2-fold)”. For the same molecule, in series [1] (time point 2 h), the Brain concentration was 400 ng/g, the Kp brain/plasma is 0.07, the Kp testes/plasma is reported as 0.11 and the Plasma concentration was 5900 ng/mL. The molecule further had a Testes concentration in series [1] (time point 2 h) of 655 ng/g. In addition, in series [1], the “brain penetration … (Cbrain/Cplasma)” value is recorded as “do not significantly penetrate the brain or minimally penetrate the brain”.

For `Cc1ccc(-c2noc(CC(O)C(F)F)n2)cc1NC(=O)c1cnc2ccccn12` (stereo not drawn) [Compound I-114], in the series with CYP3A4 (donor five), the “CYP 3A4 induction mRNA: Mean fold at 10 μM” value is listed as “+ (induction fold of less than or equal to 2-fold)”. In addition, the “CYP 3A4 induction mRNA: Mean fold at 10 μM” value in the series on CYP3A4 (donor four) is on record as “+ (induction fold of less than or equal to 2-fold)”. The “CYP 3A4 induction mRNA: Mean fold at 10 μM” value in the series with CYP3A4 (donor three) is given as “+ (induction fold of less than or equal to 2-fold)”. In series [1] (time point 0.5 h), this molecule gave a Brain concentration of 106 ng/g, a Kp brain/plasma of 0.07, a Kp testes/plasma of 0.17 and a Plasma concentration of 1540 ng/mL. In series [1] (time point 0.5 h), this molecule came in with a Testes concentration of 256 ng/g. In series [1] (time point 2 h), this molecule gave a Brain concentration of 113 ng/g, a Kp brain/plasma of 0.07, a Kp testes/plasma of 0.29 and a Plasma concentration of 1680 ng/mL. The same molecule displayed a Testes concentration in series [1] (time point 2 h) of 482 ng/g. In addition, in series [1] (time point 7 h), the Brain concentration is 45.5 ng/g, the Kp brain/plasma is given as 0.07, the Kp testes/plasma was 0.38 and the Plasma concentration was 693 ng/mL. The same molecule gave a Testes concentration in series [1] (time point 7 h) of 248 ng/g. Also, in series [1], the “brain penetration … (Cbrain/Cplasma)” value was “do not significantly penetrate the brain or minimally penetrate the brain”.

As to `Cc1ccc(-c2noc([C@H](C)O)n2)cc1NC(=O)c1cnc2ccccn12` [Compound I-271], the “CYP 3A4 induction mRNA: Mean fold at 10 μM” value with CYP3A4 (donor four) is “+ (induction fold of less than or equal to 2-fold)”. In series [1] (time point 2 h), this molecule showed a Brain concentration of 325 ng/g, a Kp brain/plasma of 0.18, a Kp testes/plasma of 0.58 and a Plasma concentration of 1760 ng/mL. For the same molecule, the Testes concentration in series [1] (time point 2 h) is reported as 1020 ng/g.
